Five compounds from ChEMBL document CHEMBL1139343, “Pharmacophore guided discovery of small-molecule human apurinic/apyrimidinic endonuclease 1 inhibitors” (J Med Chem, 2009) can be followed below.

Assay [1] can be described thus: Selectivity index, IC50 for human recombinant APE1 over exonuclase 3.
The target in assay [2] is DNA repair nuclease/redox regulator APEX1 (Homo sapiens, UniProt P27695). The assay can be described thus: Inhibition of purified human recombinant APE1 expressed in Escherichia coli M15 cells.
Chain of DNA repair nuclease/redox regulator APEX1 (P27695 whole entry): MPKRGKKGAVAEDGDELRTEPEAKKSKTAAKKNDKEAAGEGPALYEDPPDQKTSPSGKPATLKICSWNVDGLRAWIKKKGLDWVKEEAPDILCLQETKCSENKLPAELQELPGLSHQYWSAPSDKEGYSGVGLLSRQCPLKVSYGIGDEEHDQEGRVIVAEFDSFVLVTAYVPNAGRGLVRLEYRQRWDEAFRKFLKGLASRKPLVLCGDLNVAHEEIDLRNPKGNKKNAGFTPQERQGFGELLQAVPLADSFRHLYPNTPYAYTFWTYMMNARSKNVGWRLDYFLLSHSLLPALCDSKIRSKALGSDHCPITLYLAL
The target of assay [3] is Human immunodeficiency virus type 1 integrase (Human immunodeficiency virus 1, UniProt Q7ZJM1). The assay can be described thus: Inhibition of HIV1 integrase.
Chain of Human immunodeficiency virus type 1 integrase (Q7ZJM1 whole entry): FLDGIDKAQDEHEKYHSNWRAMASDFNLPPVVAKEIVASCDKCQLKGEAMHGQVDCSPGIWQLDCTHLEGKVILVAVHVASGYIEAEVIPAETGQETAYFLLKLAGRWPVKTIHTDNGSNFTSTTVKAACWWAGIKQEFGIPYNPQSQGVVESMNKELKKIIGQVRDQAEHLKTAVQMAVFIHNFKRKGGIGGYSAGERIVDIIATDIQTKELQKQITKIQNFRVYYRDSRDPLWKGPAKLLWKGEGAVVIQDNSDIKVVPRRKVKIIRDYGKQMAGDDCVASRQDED
Assay [4] in a line: Inhibition of exonuclase 3.
Assay [5] is described as follows: Inhibition of endonuclease 4.

pIC50: −log10 of the molar value. A value given as a limit tells only on which side of the number the result lay.

A word on the pIC50: it is −log10 of the IC50, conventionally taken in molar units. Regarding `O=C(O)Cn1c(CCCCc2nc3ccccc3n2CC(=O)O)nc2ccccc21`, the Ratio IC50 in assay [1] came to 20. For the same compound, the pIC50 in assay [2] is 5.40; in assay [3] it was < 4.00; in assay [4], 4.10; in assay [5] it was < 4.00.

Consider `O=C(O)Cc1cc(S(=O)(=O)c2ccc(Sc3ccc(C(=O)O)cc3)cc2)ccc1C(=O)O`, for which, in assay [1], the Ratio IC50 is 23. The pIC50 in assay [2] was 5.40; in assay [3] it was < 4.00; in assay [4], 4.05; in assay [5], < 4.00.

As for `Cc1oc(C)c(C(=O)O)c1COc1ccccc1C(=O)O`, in assay [1], the Ratio IC50 worked out at 16. Also, the pIC50 in assay [2] is 5.22; in assay [3], < 4.00; in assay [4] it was 4.01; in assay [5] it was < 4.00.

Take `O=C(O)CN1C(=O)/C(=C\c2ccc(-c3cccc(C(=O)O)c3)o2)SC1=S`: the Ratio IC50 in assay [1] was 12. Also, the pIC50 is 5.22 in assay [2], < 4.00 in assay [3], 4.15 in assay [4] and < 4.00 in assay [5].

Regarding `O=C(O)CCN1C(=O)/C(=C2/C(=O)N(CC(=O)O)c3ccccc32)SC1=S`, the Ratio IC50 in assay [1] was 10. In addition, the pIC50 in assay [2] was 5.22; in assay [3], < 4.00; in assay [4], 4.22; in assay [5] it was < 4.00.
